{"source": "ChEMBL document CHEMBL3797156", "about": "“(7-Diethylaminocoumarin-4-yl)methyl ester of suberoylanilide hydroxamic acid as a caged inhibitor for photocontrol of histone deacetylase activity” (Bioorg Med Chem, 2016)", "key": {"[1]": {"target": "T1, Histone deacetylase (Homo sapiens) (UniProt Q13547+O15379+Q9UBN7+Q92769+Q9UQL6+Q8WUI4+Q9BY41+Q96DB2+P56524+Q9UKV0+Q969S8)", "assay": "Inhibition of human HDAC in HeLa cell nuclear extract for 60 mins by HDAC-Glo 1/2 reagent based chemiluminescence analysis", "format": "cell-free"}, "[2]": {"target": "T1, Histone deacetylase (Homo sapiens)", "assay": "Inhibition of human HDAC in HeLa cell nuclear extract in presence of irradiation at 400 to 430 nm for 1 to 10 mins incubated for 60 mins by HDAC-Glo 1/2 reagent based chemiluminescence analysis", "format": "cell-free"}, "[3]": {"assay": "Prodrug conversion in tris buffer assessed as suberoyl anilide hydroxamic acid formation at 200 uM followed 400 to 430 nm irradiation for 10 mins by HPLC analysis", "format": "ADME"}, "[4]": {"test_system": "HCT-116", "assay": "Cytotoxicity against human HCT116 cells assessed as inhibition of cell growth at 10 and 30 uM preincubated for 3 hrs followed irradiation at 400 - 430 nm for 1, 3 and 10 min measured after 48 hrs by CellTiter-Glo assay", "format": "functional, cell-based"}}, "note": "Activity calls are given as the source filed them. The calls are words filed in the database; no cut-off is given here.", "data": [{"smiles": "CCN(CC)c1ccc2c(CONC(=O)CCCCCCC(=O)Nc3ccccc3)cc(=O)oc2c1", "values": [{"measurement": "inhibition", "setting": "[1]", "result": "inactive"}, {"measurement": "inhibition", "setting": "[2]", "result": "Active"}, {"measurement": "Drug metabolism", "setting": "[3]", "result": 54, "unit": "µM"}, {"measurement": "Activity", "setting": "[4]", "result": "Active"}]}]}
